What all share (assay): growth of human tumour cells (NCI), 48 h
The subject of experiment [1] is MOLT-4 leukemia.
In experiment [2] the test system is SNB-19 CNS.
In experiment [3] the test system is HCT-15 colon.
In experiment [4] the test system is A498 renal.
Experiment [5] relates to UO-31 renal.
Experiment [6] concerns CCRF-CEM leukemia.
Experiment [7] deals with UACC-257 melanoma.
The test system of experiment [8] is SNB-75 CNS.
The subject of experiment [9] is SF-539 CNS.

Experimental findings from PubChem BioAssay (NCI) are described below.

Molecules are shown by their SMILES.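 Five compound concentrations were applied to cells in 96-well plates for 48 hours; endpoints were derived by simple linear interpolation of the resulting dose-response curve. Abbreviation: GI50, concentration required for 50% inhibition of growth. At the TGI there is no net growth.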

Consider `CC(C)(C)c1ccc2c(c1)S(=O)(=O)Nc1ccc(Cl)cc1NS(=O)(=O)c1cc(C(C)(C)C)ccc1OCCOCCOCCO2`, for which the TGI in experiment [1], in experiment [2], in [3], in [4], in [5] and in [6] was greater than 100 µM throughout. Further, the results for the TGI in experiment [7], in experiment [8] and in experiment [9] were greater than 100 µM, 59 µM and greater than 100 µM, respectively.

With `Cc1ccc(C)c(N2C/C(=N\NC(=O)CC#N)C(c3nc4ccccc4s3)C(=O)C2=O)c1` (centres undefined), the TGI in [1], in experiment [2], in experiment [3], in experiment [4], in experiment [5] and in experiment [6] was greater than 100 µM throughout. For the same compound, the TGI in experiment [7] and in [8] was greater than 100 µM throughout.

For `COc1cccc(/C=N/[N-]C(=O)c2ccncc2)c1[O-].COc1cccc(/C=N/[N-]C(=O)c2ccncc2)c1[O-].[O]=[U](=[O])([OH2+])[OH2+]`, the GI50 in experiment [1] was 1.44 µM; in experiment [2], 9.44 µM; in [3], 4.77 µM; in experiment [4], 21.5 µM; in experiment [5], 3.45 µM; in experiment [6], 2.06 µM. In addition, the GI50 is 4.73 µM in experiment [7], 12.9 µM in experiment [8] and 4.27 µM in experiment [9]. In addition, the TGI in experiment [1] is greater than 100 µM; in experiment [2] it was greater than 100 µM; in experiment [3], greater than 100 µM; in experiment [4] it was 47.7 µM; in experiment [5] it was 20 µM; in [6], greater than 30.7 µM. Also, the values for the TGI in [7], in experiment [8] and in [9] were greater than 54.4 µM, 62.6 µM and greater than 42.8 µM, respectively.

On to `COC(=O)C1C(O)C(C(=O)OC)C(C)N(C)C1C` (centres undefined), for which the TGI in experiment [1], in experiment [2], in experiment [3], in experiment [4], in experiment [5] and in [6] was greater than 100 µM in each case. Also, the TGI in [7] and in [9] was greater than 100 µM in each case.

Consider `CCN1c2ccccc2-c2c3c1cc(C)cc3c1ccccc1[n+]2CC`, for which the TGI in [1] was 3.41 µM; in experiment [2], 3.16 µM; in experiment [3], 22.6 µM; in experiment [4] it was 13.9 µM; in experiment [5] it was 20.8 µM; in experiment [6], 2.83 µM. In addition, the TGI was 1.65 µM in experiment [7], 2.2 µM in [8] and 2.51 µM in experiment [9].

As for `Nc1ccccc1C(=O)/C=C/c1c(O)ccc2ccccc12`, the TGI in [1], in [2], in [3], in experiment [4], in experiment [5] and in [6] was greater than 100 µM each time. The TGI in [7], in experiment [8] and in experiment [9] was greater than 100 µM each time.

`Cc1[nH]c2ccccc2c1C1Cc2ccccc2N1C(=O)C#Cc1ccc([N+](=O)[O-])cc1` (centres undefined): the TGI in experiment [1], in experiment [2], in experiment [4], in [5], in experiment [6] and in experiment [7] was greater than 100 µM each time. In addition, the TGI in [8] and in experiment [9] was greater than 100 µM throughout.

Regarding `N#CC(=Nc1ccccc1N(C(=O)c1ccccc1)C(=O)c1ccccc1)c1ccccc1`, the TGI was greater than 100 µM in experiment [1]; greater than 54.9 µM in [2]; greater than 90.3 µM in [3]; greater than 100 µM in experiment [4]; greater than 100 µM in [5]; greater than 31.2 µM in [6]. Also, the TGI in experiment [7], in experiment [8] and in experiment [9] was greater than 100 µM each time.

`COc1cc(/C=C2\[C@H]3c4c(c(OC)c(C)c(OC)c4OC)CC(C(=O)N2Cc2ccccc2)N3C)c(OC)c(C)c1OC`: the TGI worked out at 56.9 µM in experiment [1]; 73.8 µM in experiment [2]; 50.1 µM in [4]; 41.8 µM in experiment [5]; 42.5 µM in experiment [6]; 39.6 µM in [7]. Further, the TGI came out at 82.7 µM in [8] and 33.4 µM in experiment [9].

For `CC(C(=O)c1ccc(Cl)cc1)/C(=N/NC(=O)NN)C(=O)Nc1cccc(C(F)(F)F)c1` (centres undefined), the TGI in [1], in [2], in experiment [3], in [4], in experiment [5] and in [6] was greater than 100 µM throughout. Besides, the TGI in experiment [7], in [8] and in [9] was greater than 100 µM each time.

Turning to `CCOC(=O)NC(=O)c1cn(C2CCCCC2)c(=O)[nH]c1=O`, the TGI in [1], in experiment [2], in [3], in experiment [4], in experiment [5] and in experiment [6] was greater than 100 µM throughout. Also, the TGI in [7] and in [9] was greater than 100 µM throughout.

On to `COc1c(C)n(CCO)ccc1=O`, for which the TGI in [1], in experiment [2], in experiment [3], in experiment [4], in experiment [5] and in experiment [6] was greater than 100 µM in each case. The TGI in experiment [7] and in experiment [8] was greater than 100 µM in each case.

For `Cc1ccccc1C1=[N+]([O-])c2ccc(Cl)cc2C1=O`, the TGI came to 24.3 µM in [1]; 64.4 µM in experiment [2]; 31.9 µM in [3]; 71.4 µM in experiment [4]; 31.2 µM in experiment [5]; 12.5 µM in [6]. Moreover, the TGI in [7] is 26.4 µM; in experiment [8] it was 40.3 µM; in experiment [9], 31.6 µM.

As for `CCC1CN2CCc3cc(OC)c(OC)cc3C2CC1CC1c2cc(OC)c(OC)cc2CCN1C(=O)C1CCCN1` (centres undefined), the TGI in [1] is 85.1 µM; in experiment [2] it was greater than 100 µM; in experiment [3], greater than 100 µM; in experiment [4], 56.6 µM; in experiment [5], 47.4 µM; in [6], 64.8 µM. Moreover, the TGI in [7] is 41 µM; in experiment [8] it was greater than 100 µM; in experiment [9], 37.8 µM.
